Data reported in patent US9926305B2, “Salts” (Bayer Pharma Aktiengesellschaft, priority 2013, dated 2018).

Legend:
[1] = storage stability after processing via suspensions; format: physicochemical; conditions: crystalline salt, even after processing via suspensions
[2] = for some applications; suitability for use in formulations

Cn1c(=O)oc2cc(-n3cc(C(=O)O)c(=O)n([C@@H]4CCc5c4cccc5C(F)(F)F)c3=O)ccc21.NCCCC[C@H](N)C(=O)O [L-lysine salt, L-lysine salt of 1-(3-methyl-2-oxo-2,3-dihydro-1,3-benzoxazol-6-yl)-2,4-dioxo-3-[(1R)-4-(trifluoromethyl)-2,3-dihydro-1H-inden-1-yl]-1,2,3,4-tetrahydropyrimidine-5-carboxylic acid]
storage stability [1]: storage-stable

Cn1c(=O)oc2cc(-n3cc(C(=O)[O-])c(=O)n([C@@H]4CCc5c4cccc5C(F)(F)F)c3=O)ccc21.[K+] [potassium salt, potassium salt of 1-(3-methyl-2-oxo-2,3-dihydro-1,3-benzoxazol-6-yl)-2,4-dioxo-3-[(1R)-4-(trifluoromethyl)-2,3-dihydro-1H-inden-1-yl]-1,2,3,4-tetrahydropyrimidine-5-carboxylic acid]
storage stability [1]: storage-stable

Cn1c(=O)oc2cc(-n3cc(C(=O)O)c(=O)n([C@@H]4CCc5c4cccc5C(F)(F)F)c3=O)ccc21 [free acid, 1-(3-Methyl-2-oxo-2,3-dihydro-1,3-benzoxazol-6-yl)-2,4-dioxo-3-[(1R)-4-(trifluoromethyl)-2,3-dihydro-1H-inden-1-yl]-1,2,3,4-tetrahydropyrimidine-5-carboxylic acid]
solubility [2]: insufficient solubility

Cn1c(=O)oc2cc(-n3cc(C(=O)[O-])c(=O)n([C@@H]4CCc5c4cccc5C(F)(F)F)c3=O)ccc21.[Na+] [sodium salt, sodium salt of 1-(3-methyl-2-oxo-2,3-dihydro-1,3-benzoxazol-6-yl)-2,4-dioxo-3-[(1R)-4-(trifluoromethyl)-2,3-dihydro-1H-inden-1-yl]-1,2,3,4-tetrahydropyrimidine-5-carboxylic acid]
storage stability [1]: storage-stable
